Entries after “also recorded” stand apart in the source; their conditions may differ. No end group written: not given here.

One series has as its system MIP1α. Briefly: Expression of inflammatory cytokine in brain (real-time qPCR). The format is in vivo, mouse. The following applies: chronic daily 50 μg/kg BW; Hgsnat^P304L mice at 5 months; vs saline. On the procedure:
RNA was isolated from snap-frozen brain, kidney and liver tissues using the TRIzol reagent (Invitrogen) and reverse-transcribed using the iScript™ Reverse Transcription Supermix (Bio RAD #1708840) according to the manufacturer's protocol, qPCR was performed using a LightCycler® 96 Instrument (Roche) and SsoFast™ EvaGreen® Supermix with Low ROX (Bio RAD #1725211) according to the manufacturer's protocol. RLP32 mRNA was used as a reference control.
Starting from 3 weeks of age, WT C57B16 and homozygous Hgsnat^P304L male and female mice were randomly divided in treatment and control groups (6-13 mice/sex/genotype/treatment; see Table I). The control group was daily administered with saline (5 μL to each nostril), while for the treatment group, saline was supplemented with 125 µg of AVP6/mL, which would result in a dose of approximately 50 μg/kg BW/day. The peptide formulation was prepared once, aliquoted and kept frozen at −80° C. until use. At 4 months, all mice were studied by EPM, OF, YM and NOR behavioral tests. Administration of the drug or saline was continued through the days on which the assays were conducted. Then approximately at 5 months 4-5 mice in each group were sacrificed. […] When such signs were detected, the mice were studied by ERG and sacrificed within 1-2 days. […]
(In qPCR the cycle at which signal appears reflects the starting amount.)

Series [1] can be described thus: Body weight measured weekly during chronic administration. The following applies: chronic intranasal administration; Hgsnat^P304L or WT mice. Format: in vivo, mouse. On the procedure: WT, and Hgsnat^P304L mice were randomly assigned to the treatment and control groups. The cohort size (18 mice/sex/treatment) was calculated based on mean variability of replicates in previous behavioral tests in Hgsnat^P304L mice to detect a ˜40% difference between means (power=0.8). Treatment was started at weaning (P21) which corresponds to neurodevelopmental human age of 3 years, the time of disease onset for majority of Sanfilippo patients. Since most patients are diagnosed post-symptomatically, this age would most likely become the treatment starting point for the most of patients. […] To test if chronic administration of the peptide results in major metabolic changes, the mouse body weight was measured weekly.

Series [2] deals with Hgsnat^P304L MPS IIIC mice. Briefly: Y-Maze test. The format is in vivo, mouse. The following applies: chronic daily intranasal 50 μg/kg BW from 3 weeks. On the procedure:
The spontaneous alternation behavior, spatial working memory and exploratory activity of mice were evaluated using a white Y-maze as follows. The maze consisted of three identical white Plexiglas arms (40×10×20 cm, 120° apart) under dim lighting conditions. Each mouse was placed at the end of one arm, facing the center, and allowed to explore the maze for 8 min. All experiments were performed at the same time of the day and by the same investigator to avoid circadian and handling bias. Sessions were video-recorded and arm entries were scored by a trained observer, unaware of the mouse genotype or treatment. Successful alternation was defined as consecutive entries into a new arm before returning to the two previously visited arms.
Alternation was calculated as: [number of alternations/total number of arm entries−2]×100.
Starting from 3 weeks of age, WT C57B16 and homozygous Hgsnat^P304L male and female mice were randomly divided in treatment and control groups (6-13 mice/sex/genotype/treatment; see Table I). The control group was daily administered with saline (5 μL to each nostril), while for the treatment group, saline was supplemented with 125 µg of AVP6/mL, which would result in a dose of approximately 50 μg/kg BW/day. […] When such signs were detected, the mice were studied by ERG and sacrificed within 1-2 days. […]

A short description of series [3]: Effect on memory and learning after intranasal administration (earlier work). The format is in vivo. To be noted: 50 μg/kg BW intranasal; mice and rats.
Series [4] deals with Hgsnat^P304L MPS IIIC mice. Description: Open Field test. The following applies: for Open Field behaviour in WT mice vs saline: chronic daily treatment. Format: in vivo, mouse. On the procedure: Method: Open field test that explores behaviour of animals in open area. Rodents normally avoid the center of the arena (anxiety reflex) and spend certain time immobile (freezing reflex). […]
The open-field test was performed as previously described. Briefly, mice were habituated in the experimental room for 45 mins before the commencement of the test. Each mouse was then gently placed in the center of the open-field arena and allowed to explore for 20 min. The mouse was removed and transferred to its home cage after the test, and the arena was cleaned with 70% ethanol before the commencement of the next test. Analysis of the behavioral activity was done using the Smart video tracking software (v3.0, Panlab Harvard Apparatus), and total distance traveled and percent of time spent in the center zone were measured for hyperactivity and anxiety assessment, respectively.
Starting from 3 weeks of age, WT C57B16 and homozygous Hgsnat^P304L male and female mice were randomly divided in treatment and control groups (6-13 mice/sex/genotype/treatment; see Table I). The control group was daily administered with saline (5 μL to each nostril), while for the treatment group, saline was supplemented with 125 µg of AVP6/mL, which would result in a dose of approximately 50 μg/kg BW/day. The peptide formulation was prepared once, aliquoted and kept frozen at −80° C. until use. At 4 months, all mice were studied by EPM, OF, YM and NOR behavioral tests. Administration of the drug or saline was continued through the days on which the assays were conducted. Then approximately at 5 months 4-5 mice in each group were sacrificed. Their blood plasma was collected, and their tissues were either snap-frozen or fixed and cryopreserved to analyze CNS pathology as described above. For the remaining mice, treatment was continued and their behaviour was studied again at the age of 6 months using OF. NOR and YM tests. Starting from the age of 8 months, Hgsnat^P304L treated and untreated mice were daily studied for the signs of urinary retention. When such signs were detected, the mice were studied by ERG and sacrificed within 1-2 days. Finally, the remaining treated and untreated WT mice were studied by ERG and sacrificed at the end of the study, approximately at 10 months of age.
We further tested if AVP6 can rescue neurobehavioral deficits associated with synaptic dysfunction in MPS IIIC mice. The early phase of the disease in both Hgsnat-Geo and Hgsnat^P304L mice manifests with reduced anxiety and hyperactivity. Specifically, in an Open Field (OF) test at both 4 months and 6 months, Hgsnat^P304L mice show a significant increase in a total distance traveled, increased time spent at the center of the arena and increased distance traveled in the center of the arena as compared with the WT animals. […] […] Control groups were treated with the same volume of saline.

Series [5] has as its system Hgsnat^P304L MPS IIIC mice. Briefly: Open Field test. The format is in vivo, mouse. The following applies: 6-month-old Hgsnat^P311L (P304L) mice.
The mark [6] stands for this setting: chronic daily intranasal 50 μg/kg BW from 3 weeks, Hgsnat^P304L male and female mice at 4 months.
The mark [7] stands for this setting: chronic daily intranasal 50 μg/kg BW from 3 weeks, Hgsnat^P304L mice at 6 months.
Setting [8] is: single intranasal 50 μg/kg 17 h before test, Hgsnat^P311L (P304L) mice, 4 and 6 months.
[9] abbreviates: single intranasal 10 μg/kg (low dose).
Where [10] appears, read: single intranasal 500 μg/kg (high dose).

Regarding “AVP6: N-terminally acetylated Semax, a nootropic peptide having the amino acid sequence of MEHFPGP (SEQ ID NO:1) (Ac-MEHFPGP)”, the “expression levels of inflammatory cytokine MIP1α in the brain” value with MIP1α was “reduced expression levels”. In addition, the “body weight and body weight gain, treated vs untreated” value in series [1] was “No difference in body weight and body weight gain”. In addition, in series [2] (Hgsnat^P304L mice at 4 months), the “spatial memory (alternation between arms), Y-Maze” value was “a significant difference between saline-treated and peptide-treated mice was observed only, when we pooled the data for both sexes together; also recorded: rescues deficits in spatial and short-term memory; also recorded: show the rescue of all above deficits”. The “spatial memory (percent of alternation between arms), Y-Maze” value in series [2] (Hgsnat^P304L mice at 6 months) was “demonstrated alternation similar to that of the WT mice; also recorded: partially rescues deficits in spatial and short-term memory; also recorded: show rescue of all above deficits”. For the same substance, the “time to maximal effect on memory and learning after intranasal administration” value in series [3] was at most 24 h. For the same substance, the “hyperactivity (total distance traveled), Open Field” value is “showed absence of these phenotypes; also recorded: show the rescue of all above deficits” in series [4] (setting [6]), “significantly reduced; also recorded: show rescue of all above deficits” in series [4] (setting [7]) and “rescues hyperactivity; also recorded: the total traveled distance was reduced; also recorded: Both parameters are normalized” in series [4] (setting [8]). The “reduced anxiety (time spent in the center), Open Field” value in series [4] (setting [6]) is “showed absence of these phenotypes; also recorded: show the rescue of all above deficits”; in series [4] (setting [7]), “significantly reduced; also recorded: show rescue of all above deficits”. Besides, the “Open Field behaviour in WT mice vs saline” value is on record as “no difference was observed” in series [4] (WT mice at 4 months) and “No difference in behaviour was observed” in series [4] (WT mice at 6 months). Besides, the “reduced anxiety (time spent / distance traveled in the center), Open Field” value in series [4] (setting [8]) is “rescues hyperactivity and reduced anxiety; also recorded: time spend in the center increased; also recorded: Both parameters are normalized”. For the same substance, the “hyperactivity, Open Field” value in series [5] (setting [9]) and in series [5] (setting [10]) was “failed to rescue hyperactivity or reduced anxiety; also recorded: do not rescue hyperactivity” throughout. Also, the “reduced anxiety, Open Field” value in series [5] (setting [9]) and in series [5] (setting [10]) was “failed to rescue hyperactivity or reduced anxiety” throughout.

These data come from US20240043473A1, “NOOTROPIC PEPTIDES FOR TREATING LYSOSOMAL STORAGE DISEASES” (Phoenix Nest Inc., priority 2021, published 2024).
